Series [1] deals with T1, full-length B-Catenin (Uniprot ID P35222) (Homo sapiens, UniProt P35222).
T1 construct: 65 nM full-length B-Catenin (Uniprot ID P35222)
T1 sequence (P35222 1-781): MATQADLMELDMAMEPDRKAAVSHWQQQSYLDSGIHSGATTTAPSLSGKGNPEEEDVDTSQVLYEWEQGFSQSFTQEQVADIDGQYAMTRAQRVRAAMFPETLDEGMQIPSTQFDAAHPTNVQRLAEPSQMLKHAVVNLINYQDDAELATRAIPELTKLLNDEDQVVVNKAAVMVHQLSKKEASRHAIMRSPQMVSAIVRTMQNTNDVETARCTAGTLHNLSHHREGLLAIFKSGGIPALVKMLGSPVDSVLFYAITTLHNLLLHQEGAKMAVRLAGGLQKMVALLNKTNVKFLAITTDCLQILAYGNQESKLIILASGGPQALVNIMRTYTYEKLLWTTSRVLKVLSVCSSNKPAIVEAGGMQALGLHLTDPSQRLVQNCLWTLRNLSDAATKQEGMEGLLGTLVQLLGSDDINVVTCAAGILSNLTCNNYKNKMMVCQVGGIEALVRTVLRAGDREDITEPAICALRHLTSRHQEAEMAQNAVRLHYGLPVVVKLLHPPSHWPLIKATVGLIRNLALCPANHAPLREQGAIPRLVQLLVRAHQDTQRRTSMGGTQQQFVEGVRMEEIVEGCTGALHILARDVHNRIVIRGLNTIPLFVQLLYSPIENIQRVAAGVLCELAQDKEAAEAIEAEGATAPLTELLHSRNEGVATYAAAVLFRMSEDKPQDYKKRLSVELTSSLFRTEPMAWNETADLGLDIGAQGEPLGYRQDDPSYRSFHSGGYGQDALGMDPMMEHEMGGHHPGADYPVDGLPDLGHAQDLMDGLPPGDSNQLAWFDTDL
Kind of series: Alphascreen binding assay (beta-catenin / biotin-TCF4 10-53). An outline of the steps:
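AlphaScreen (Ni-chelate beads) competition in 50 mM Tris pH 8.0, 250 mM NaCl with detergents and 0.1% BSA. Peptide titrated 10 uM–5 nM against 65 nM human β-catenin bound to 10 nM biotinylated TCF4 10-53, 15 min then 60 min with beads, both at 20 °C; 1:1 Hill-slope fit.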
For orientation: Bead proximity is the source of the signal in Alpha formats.

Another series is described as follows: CHI Log D procedure. In kind it is physicochemical. The note with it: for CHI Log D: pH 7.4; for chromatographic logD: pH 7.4, CHI Log D.

Usually EC50 stands for the concentration at which the effect is half-maximal. Consider `CC(=O)N1CCC[C@]12CC=CCCCC1(CCCC=CCCCCCC[C@@](C)(C(=O)N[C@@H](Cc3ccccc3)C(=O)N[C@@H](Cc3c[nH]c4ccccc34)C(=O)N[C@@H](CCC(N)=O)C(N)=O)NC(=O)[C@H](C(C)C)NC(=O)[C@H](Cc3cc(F)c(F)c(F)c3)NC(=O)[C@H](C)NC(=O)[C@H](C)NC(=O)[C@H](CCC(=O)O)NC(=O)[C@H](CC(=O)O)NC1=O)NC(=O)[C@H](C)NC(=O)[C@H](CC(=O)O)NC2=O` (stereo partly drawn) [I-211, Ac-PL3-Asp-Ala-B5-Asp-Glu-Ala-Ala-345FF-Val-S8-Phe-Trp-Gln-NH2], for which, in series [1], the half-maximal effective concentration (EC50) came out at 0.367 µM. In the series “CHI Log D procedure”, the “CHI Log D” value is reported as 2.101.
The corresponding values for `CC(=O)N1CCC[C@]12CC=CCCCC1(CCCC=CCCCCCC[C@@](C)(C(=O)N[C@@H](Cc3ccccc3)C(=O)N[C@@H](Cc3c[nH]c4ccccc34)C(=O)N[C@@H](CCC(N)=O)C(N)=O)NC(=O)[C@H](C(C)C)NC(=O)[C@H](Cc3cc(F)c(F)c(F)c3)NC(=O)[C@H](C)NC(=O)[C@H](C)NC(=O)[C@H](CCC(=O)O)NC(=O)[C@H](CC(=O)O)NC1=O)NC(=O)[C@H](C)NC(=O)[C@H](CC(=O)O)NC2=O` (stereo partly drawn) [I-212, Ac-PL3-Asp-Ala-B5-Asp-Glu-Ala-Ala-345FF-Val-S8-Phe-Trp-Gln-NH2] are 0.367 µM and 2.101.
On the same counts, the results for `CC(=O)N[C@@H](Cc1ccccc1)C(=O)N[C@@H](CC(=O)O)C(=O)N[C@@H](C)C(=O)N[C@]1(C)CCCCCCC=CCOC(=O)N2CC[C@@](C(=O)N[C@@H](Cc3ccccc3)C(=O)N[C@@H](Cc3c[nH]c4ccccc34)C(=O)N[C@@H](CCC(N)=O)C(N)=O)(C2)NC(=O)[C@H]([C@@H](C)O)NC(=O)[C@H](Cc2ccccc2)NC(=O)[C@H](C)NC(=O)[C@H](C)NC(=O)[C@H](CC(=O)O)NC(=O)[C@H](CC(=O)O)NC1=O` [I-221, Ac-Phe-Asp-Ala-R8-Asp-Asp-Ala-Ala-Phe-Thr-PyrS-Phe-Trp-Gln-NH2] are 6.58 µM and 1.34.
Compound `CC(=O)N[C@@H](Cc1ccccc1)C(=O)N[C@@H](CC(=O)O)C(=O)N[C@@H](C)C(=O)N[C@]1(C)CCCCCCC=CCOC(=O)N2CC[C@@](C(=O)N[C@@H](Cc3ccccc3)C(=O)N[C@@H](Cc3c[nH]c4ccccc34)C(=O)N[C@@H](CCC(N)=O)C(N)=O)(C2)NC(=O)[C@H]([C@@H](C)O)NC(=O)[C@H](Cc2ccccc2)NC(=O)[C@H](C)NC(=O)[C@H](C)NC(=O)[C@H](CC(=O)O)NC(=O)[C@H](CC(=O)O)NC1=O` [I-222, Ac-Phe-Asp-Ala-R8-Asp-Asp-Ala-Ala-Phe-Thr-PyrS-Phe-Trp-Gln-NH2] gave an EC50 in series [1] of 6.58 µM. For the same compound, the “CHI Log D” value in “CHI Log D procedure” is given as 1.34.
The corresponding values for `CC(=O)N[C@@H](Cc1ccccc1)C(=O)N[C@@H](CC(=O)O)C(=O)N[C@@H](C)C(=O)N[C@]1(C)CCCCCCC=CCOC(=O)N2CC[C@@](C(=O)N[C@@H](Cc3ccccc3)C(=O)N[C@@H](Cc3c[nH]c4ccccc34)C(=O)N[C@@H](CCC(N)=O)C(N)=O)(C2)NC(=O)[C@H]([C@@H](C)O)NC(=O)[C@H](Cc2ccccc2)NC(=O)[C@H](C)NC(=O)[C@H](C)NC(=O)[C@H](CC(=O)O)NC(=O)[C@H](CC(=O)O)NC1=O` [I-223, Ac-Phe-Asp-Ala-R8-Asp-Asp-Ala-Ala-Phe-Thr-PyrS-Phe-Trp-Gln-NH2] are 4.12 µM and 1.401.
On to `CC(=O)N[C@@H](Cc1ccccc1)C(=O)N[C@@H](CC(=O)O)C(=O)N[C@@H](C)C(=O)N[C@]1(C)CCCCCCC=CCOC(=O)N2CC[C@@](C(=O)N[C@@H](Cc3ccccc3)C(=O)N[C@@H](Cc3c[nH]c4ccccc34)C(=O)N[C@@H](CCC(N)=O)C(N)=O)(C2)NC(=O)[C@H]([C@@H](C)O)NC(=O)[C@H](Cc2ccccc2)NC(=O)[C@H](C)NC(=O)[C@H](C)NC(=O)[C@H](CC(=O)O)NC(=O)[C@H](CC(=O)O)NC1=O` [I-224, Ac-Phe-Asp-Ala-R8-Asp-Asp-Ala-Ala-Phe-Thr-PyrS-Phe-Trp-Gln-NH2], for which the response in series [1] was half-maximal at 4.12 µM (EC50). The “CHI Log D” value in the series “CHI Log D procedure” is 1.401.
On the same counts, the results for `CC(=O)N[C@@H](Cc1ccccc1)C(=O)N[C@@H](CC(=O)O)C(=O)N[C@@H](C)C(=O)N[C@]1(C)CCCCCCC=CCOC(=O)N2CC[C@@](C(=O)N[C@@H](Cc3c(F)c(F)c(F)c(F)c3F)C(=O)N[C@@H](Cc3c[nH]c4ccccc34)C(=O)N[C@@H](CCC(N)=O)C(N)=O)(C2)NC(=O)[C@H](C(C)C)NC(=O)[C@H](Cc2ccccc2)NC(=O)[C@H](C)NC(=O)[C@H](C)NC(=O)[C@H](CC(=O)O)NC(=O)[C@H](CC(=O)O)NC1=O` [I-225, Ac-Phe-Asp-Ala-R8-Asp-Asp-Ala-Ala-Phe-Val-PyrS-Pff-Trp-Gln-NH2] are 7.63 µM and 1.497.
For `CC(=O)N[C@@H](Cc1ccccc1)C(=O)N[C@@H](CC(=O)O)C(=O)N[C@@H](C)C(=O)N[C@]1(C)CCCCCCC=CCOC(=O)N2CC[C@@](C(=O)N[C@@H](Cc3c(F)c(F)c(F)c(F)c3F)C(=O)N[C@@H](Cc3c[nH]c4ccccc34)C(=O)N[C@@H](CCC(N)=O)C(N)=O)(C2)NC(=O)[C@H](C(C)C)NC(=O)[C@H](Cc2ccccc2)NC(=O)[C@H](C)NC(=O)[C@H](C)NC(=O)[C@H](CC(=O)O)NC(=O)[C@H](CC(=O)O)NC1=O` [I-226, Ac-Phe-Asp-Ala-R8-Asp-Asp-Ala-Ala-Phe-Val-PyrS-Pff-Trp-Gln-NH2], the EC50 in series [1] was 7.63 µM. In addition, in the series “CHI Log D procedure”, the “CHI Log D” value was determined as 1.497.
The corresponding values for `CC(=O)N1CCC[C@]12CC=CCCCC1(CCCC=CCCCCCC[C@@](C)(C(=O)N[C@@H](Cc3ccccc3)C(=O)N[C@@H](Cc3c[nH]c4ccccc34)C(=O)N[C@@H](CCC(N)=O)C(N)=O)NC(=O)[C@H](C(C)C)NC(=O)[C@H](Cc3ccccc3)NC(=O)[C@H](C)NC(=O)[C@H](C)NC(=O)[C@H](CCC(=O)O)NC(=O)[C@H](Cc3ccccn3)NC1=O)NC(=O)[C@H](C)NC(=O)[C@H](CC(=O)O)NC2=O` (stereo partly drawn) [I-229, Ac-PL3-Asp-Ala-B5-2pyrA-Glu-Ala-Ala-Phe-Val-S8-Phe-Trp-Gln-NH2] are 5.81 µM and 3.044.
The chromatographic logD is a lipophilicity value derived from retention on a column. Turning to `CC(=O)N1CCC[C@]12CC=CCCCC1(CCCC=CCCCCCC[C@@](C)(C(=O)N[C@@H](Cc3ccccc3)C(=O)N[C@@H](Cc3c[nH]c4ccccc34)C(=O)N[C@@H](CCC(N)=O)C(N)=O)NC(=O)[C@H](C(C)C)NC(=O)[C@H](Cc3ccccc3)NC(=O)[C@H](C)NC(=O)[C@H](C)NC(=O)[C@H](Cc3csc4ccccc34)NC(=O)[C@H](CC(=O)O)NC1=O)NC(=O)[C@H](C)NC(=O)[C@H](CC(=O)O)NC2=O` (stereo partly drawn) [I-231, Ac-PL3-Asp-Ala-B5-Asp-BztA-Ala-Ala-Phe-Val-S8-Phe-Trp-Gln-NH2], the EC50 in series [1] amounted to 6.53 µM. Also, in the series “CHI Log D procedure”, the chromatographic logD was found to be 3.02.
On the same counts, the results for `CC(=O)N1CCC[C@]12CC=CCCCC1(CCCC=CCCCCCC[C@@](C)(C(=O)N[C@@H](Cc3ccccc3)C(=O)N[C@@H](Cc3c[nH]c4ccccc34)C(=O)N[C@@H](CCC(N)=O)C(N)=O)NC(=O)[C@H](C(C)C)NC(=O)[C@H](Cc3ccccc3)NC(=O)[C@H](C)NC(=O)[C@H](C)NC(=O)[C@H](Cc3ccc4ccccc4c3)NC(=O)[C@H](CC(=O)O)NC1=O)NC(=O)[C@H](C)NC(=O)[C@H](CC(=O)O)NC2=O` (stereo partly drawn) [I-232, Ac-PL3-Asp-Ala-B5-Asp-2NapA-Ala-Ala-Phe-Val-S8-Phe-Trp-Gln-NH2] are 7.64 µM and 3.04.

The values above are taken from patent US20240116985A1, “STAPLED PEPTIDES AND METHODS THEREOF” (priority 2020, published 2024).
